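A five-concentration, 48-hour dose response in 96-well plates underlies each endpoint, interpolated linearly between surrounding concentrations. Here, GI50 denotes the concentration required for 50% inhibition of growth.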 Calls of active or inactive are those of the source. Rule as the data show it: active = GI50 up to about 1.1 µM and inactive = higher.
Key:
Assay in all cases: NCI tumour cell line growth inhibition, 48 h
786-0 = test system: 786-0
A549 = test system: A549
ACHN = test system: ACHN
COLO 205 = test system: COLO 205
HOP-62 = test system: HOP-62
IGROV-1 = test system: IGROV-1
KM12 = test system: KM12
OVCAR-5 = test system: OVCAR-5
RPMI-8226 = test system: RPMI-8226
RXF 393 = test system: RXF 393
SF-268 = test system: SF-268
SK-MEL-28 = test system: SK-MEL-28
SK-MEL-2 = test system: SK-MEL-2
SNB-75 = test system: SNB-75
TK-10 = test system: TK-10
UACC-62 = test system: UACC-62
UO-31 = test system: UO-31

Measured: GI50

CN1C(c2ccccc2)CC(O)CC1c1ccccc1 (configuration not stated)
inactive: 786-0 > 100 µM | A549 > 100 µM | ACHN > 100 µM | COLO 205 > 100 µM | HOP-62 > 100 µM | IGROV-1 > 100 µM | KM12 > 100 µM | OVCAR-5 > 100 µM | RPMI-8226 > 100 µM | RXF 393 > 100 µM | SF-268 > 100 µM | SK-MEL-28 > 100 µM | SK-MEL-2 > 100 µM | SNB-75 > 100 µM | TK-10 > 100 µM | UACC-62 > 100 µM | UO-31 > 100 µM

O=C(Nc1ccc(Cl)cc1)/C(Cc1cccc[n+]1[O-])=N\Nc1ccc([N+](=O)[O-])cc1[N+](=O)[O-]
inactive: 786-0 > 100 µM | A549 > 100 µM | ACHN > 100 µM | COLO 205 > 100 µM | HOP-62 > 100 µM | IGROV-1 > 100 µM | KM12 > 100 µM | OVCAR-5 > 100 µM | RPMI-8226 > 100 µM | RXF 393 > 100 µM | SF-268 > 100 µM | SK-MEL-28 > 100 µM | SK-MEL-2 > 100 µM | SNB-75 > 100 µM | TK-10 > 100 µM | UACC-62 > 100 µM | UO-31 > 100 µM

CC(=O)OC(C)(C)C1CCC(C)(C(O)COc2ccc(CCNC(=O)c3ccccc3)cc2)O1 (configuration not stated)
inactive: 786-0 > 100 µM | A549 51.1 µM | ACHN 54.1 µM | COLO 205 > 100 µM | HOP-62 43.2 µM | IGROV-1 > 100 µM | KM12 60.8 µM | OVCAR-5 > 100 µM | RPMI-8226 20.7 µM | RXF 393 6.68 µM | SF-268 > 100 µM | SK-MEL-28 79.8 µM | SK-MEL-2 > 100 µM | SNB-75 91.6 µM | TK-10 63.8 µM | UACC-62 30.8 µM | UO-31 33.7 µM

CN(C)c1ccc(/C=N/C23CC4CC(CC(C4)C2)C3)cc1
inactive: 786-0 > 100 µM | A549 > 100 µM | ACHN > 100 µM | COLO 205 > 100 µM | HOP-62 > 100 µM | IGROV-1 > 100 µM | KM12 > 100 µM | OVCAR-5 > 100 µM | RPMI-8226 > 100 µM | RXF 393 > 100 µM | SF-268 > 100 µM | SK-MEL-28 > 100 µM | SK-MEL-2 > 100 µM | SNB-75 > 10 µM | TK-10 > 100 µM | UACC-62 > 100 µM | UO-31 > 100 µM

CN(C)/C=N\c1cc[nH]c(=O)n1
inactive: 786-0 > 100 µM | A549 > 100 µM | ACHN > 100 µM | COLO 205 > 100 µM | HOP-62 > 100 µM | IGROV-1 > 100 µM | KM12 > 100 µM | OVCAR-5 > 100 µM | RPMI-8226 > 100 µM | RXF 393 > 100 µM | SF-268 > 100 µM | SK-MEL-28 > 100 µM | SK-MEL-2 > 100 µM | SNB-75 > 100 µM | TK-10 > 100 µM | UACC-62 > 100 µM | UO-31 > 100 µM

CC(=O)NNc1nc(C)c(C(=O)/C=C/c2ccc(Cl)c(Cl)c2)s1
inactive: 786-0 > 100 µM | A549 > 100 µM | ACHN > 100 µM | COLO 205 > 100 µM | HOP-62 > 100 µM | IGROV-1 > 100 µM | KM12 > 100 µM | OVCAR-5 > 100 µM | RPMI-8226 > 100 µM | RXF 393 > 100 µM | SF-268 > 100 µM | SK-MEL-28 > 100 µM | SK-MEL-2 > 100 µM | SNB-75 > 100 µM | TK-10 > 100 µM | UACC-62 > 100 µM | UO-31 > 100 µM

— ChEMBL document CHEMBL1201862, “PubChem BioAssay data set” (2004)
